Patent publication US9145411B2, “Substituted amino-pyrimidine derivatives” (Asana Biosciences, LLC, priority 2012, dated 2015)

Experiments:
PC3 cells = assay: XTT assay for cell viability, PC3 cells; format: cell-based; conditions: Homo sapiens, PC-3; PC3 cell proliferation, 96 hours
Outline: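 Log-phase PC3 cells (1000/well) were seeded for 24 h, then exposed to serially diluted compounds (DMSO dilutions) for 96 h. Viability was measured by XTT dye conversion at 37 °C, with absorbance read at 465 nm. EC50 was obtained from a sigmoidal dose-response fit.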

mTOR kinase = target: T1, mTOR kinase (Homo sapiens, UniProt P42345); assay: mTOR kinase TR-FRET assay; format: biochemical; conditions: 20 μM ATP
T1 construct: purchased Millipore, USA
Outline: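 Test compounds were pre-incubated 60 min with mTOR (5 ng), then ULight-p70 S6K (Thr389) peptide (50 nM) and ATP (20 μM) were added in HEPES 50 mM pH 7.5, EGTA, MnCl2 3 mM. After 60 min at room temperature, EDTA stop and Eu-anti-phospho antibody TR-FRET (665/615 nm) gave IC50 from sigmoidal variable-slope fits.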

pS6RP (S235/236) = assay: In-cell Western assay, pS6RP (S235/236), PC3 cells; format: cell-based; conditions: Homo sapiens, PC-3, 2 hours incubation
Experimental: (§1) Cells from human prostate cancer cell line PC3 (American Type Culture Collection (ATCC), Manassas, Va. 20108 USA) were seeded at an optimal density of 22,000 cell/well in 96-well plates containing Ham's F12K medium (90 μL) and incubated overnight. The compound dilutions were carried out in 100% DMSO followed by a dilution in the medium. Test compounds were added in serial dilutions to the wells and incubated for 2 hours. The cells were washed and fixed with 4% paraformaldehyde. After incubation at room temperature for 1 hour in the dark, blocking was done for 2 hours at room temperature. Primary antibodies for pAkt(S473) ([…] phosphorylated at serine 473), pAkt(T308) (Akt phosphorylated at threonine 308) and for pS6RP (S235/236) (phosphorylated at serine 235/236) (commercially available from Cell Signaling Technology®, whose protocol was followed for the in-cell western assay, were diluted to the required concentration and added to the corresponding wells followed by overnight incubation at 4° C. Eu-labeled rabbit (PE) (Perkin-Elmer USA catalog #AD0106) secondary antibody was added and incubated for 2 hours at room temperature. Delfia® enhancement solution (cat #1244-105, Perkin Elmer USA) was subsequently added to the plate before taking the reading at 615 nm with excitation wavelength of 340 nm, after which 0.5 μg/mL of Hoechst® 33258 dye (Catalog #86140-5, Sigma) was added to the plate and fluorescence emission was read at 460 nm with 355 nm excitation, to evaluate the correction factor. IC50 values were calculated using a sigmoidal dose-response curve fit in GraphPad Prism® v5 software.

PI3Kα (wild-type) = target: T2, PI3Kα (wild-type) (Homo sapiens, UniProt P42336); assay: PI3 Kinase TR-FRET assay, PI3Kα (wild-type); format: biochemical; conditions: wild-type P110/P85α, 10 μM ATP
T2 construct: made in house; host or cells: SF9 insect cells
Outline: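 Sf9-expressed, Ni-purified p110/p85α (5 ng) with PIP2 was preincubated with compound for 60 min at room temperature in buffer with 40 mM MgCl2 and 5 mM DTT. The reaction ran 30 min at room temperature with 10 μM PIP2 and 10 μM ATP. The TR-FRET 665/615 nm ratio was used to derive IC50 from dose-response curves.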

pAkt(S473) = assay: In-cell Western assay, pAkt(S473), PC3 cells; format: cell-based; conditions: Homo sapiens, PC-3, 2 hours incubation
Experimental: as §1

pAkt(T308) = assay: In-cell Western assay, pAkt(T308), PC3 cells; format: cell-based; conditions: Homo sapiens, PC-3, 2 hours incubation
Experimental: as §1

T2 sequence (P42336 whole entry, species assumed): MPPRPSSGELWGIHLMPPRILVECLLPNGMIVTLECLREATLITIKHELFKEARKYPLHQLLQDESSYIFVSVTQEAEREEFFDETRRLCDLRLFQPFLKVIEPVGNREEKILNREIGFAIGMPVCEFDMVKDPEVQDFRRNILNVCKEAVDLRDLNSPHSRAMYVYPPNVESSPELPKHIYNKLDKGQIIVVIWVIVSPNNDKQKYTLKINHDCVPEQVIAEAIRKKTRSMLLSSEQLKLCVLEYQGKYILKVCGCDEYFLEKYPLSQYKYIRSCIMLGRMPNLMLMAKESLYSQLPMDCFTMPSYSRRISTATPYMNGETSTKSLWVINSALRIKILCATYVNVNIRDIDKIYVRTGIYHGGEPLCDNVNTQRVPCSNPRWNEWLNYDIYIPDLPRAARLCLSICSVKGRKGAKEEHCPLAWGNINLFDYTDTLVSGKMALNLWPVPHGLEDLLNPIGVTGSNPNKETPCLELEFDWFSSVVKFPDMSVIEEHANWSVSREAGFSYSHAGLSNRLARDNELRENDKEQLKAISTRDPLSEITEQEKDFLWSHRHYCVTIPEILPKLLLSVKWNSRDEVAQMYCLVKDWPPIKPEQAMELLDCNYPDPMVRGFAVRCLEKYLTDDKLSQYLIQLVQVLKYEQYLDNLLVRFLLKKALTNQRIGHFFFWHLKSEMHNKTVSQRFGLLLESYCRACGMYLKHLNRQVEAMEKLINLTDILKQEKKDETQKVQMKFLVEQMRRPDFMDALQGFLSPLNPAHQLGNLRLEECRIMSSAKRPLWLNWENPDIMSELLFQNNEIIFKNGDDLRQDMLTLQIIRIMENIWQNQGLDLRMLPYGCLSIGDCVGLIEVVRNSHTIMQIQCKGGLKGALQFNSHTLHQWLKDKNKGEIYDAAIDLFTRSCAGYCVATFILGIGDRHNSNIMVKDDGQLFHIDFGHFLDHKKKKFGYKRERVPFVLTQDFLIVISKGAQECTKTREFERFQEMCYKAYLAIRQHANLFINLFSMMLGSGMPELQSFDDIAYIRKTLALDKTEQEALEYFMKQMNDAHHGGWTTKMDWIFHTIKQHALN
T2 sequence (P27986 whole entry partner, species assumed): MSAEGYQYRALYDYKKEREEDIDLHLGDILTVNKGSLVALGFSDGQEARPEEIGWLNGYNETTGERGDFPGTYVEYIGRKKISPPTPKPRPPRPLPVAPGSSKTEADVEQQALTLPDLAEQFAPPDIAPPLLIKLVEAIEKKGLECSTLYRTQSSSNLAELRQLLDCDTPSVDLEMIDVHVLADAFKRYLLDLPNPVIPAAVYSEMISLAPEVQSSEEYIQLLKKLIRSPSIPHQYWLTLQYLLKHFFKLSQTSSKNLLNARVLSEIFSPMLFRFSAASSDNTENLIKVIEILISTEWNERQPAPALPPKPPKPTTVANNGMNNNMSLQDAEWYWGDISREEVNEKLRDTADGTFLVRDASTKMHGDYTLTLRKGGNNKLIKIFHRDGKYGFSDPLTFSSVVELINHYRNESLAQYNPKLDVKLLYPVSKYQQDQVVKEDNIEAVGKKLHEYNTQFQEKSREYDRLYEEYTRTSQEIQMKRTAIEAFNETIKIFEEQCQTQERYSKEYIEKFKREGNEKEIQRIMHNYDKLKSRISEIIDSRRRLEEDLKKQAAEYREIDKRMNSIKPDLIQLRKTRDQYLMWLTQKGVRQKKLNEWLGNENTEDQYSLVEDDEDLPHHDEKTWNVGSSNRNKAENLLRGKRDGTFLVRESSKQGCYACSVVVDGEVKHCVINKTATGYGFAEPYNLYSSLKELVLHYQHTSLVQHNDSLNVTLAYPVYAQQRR
T1 sequence (P42345 1362-2549 limits assumed): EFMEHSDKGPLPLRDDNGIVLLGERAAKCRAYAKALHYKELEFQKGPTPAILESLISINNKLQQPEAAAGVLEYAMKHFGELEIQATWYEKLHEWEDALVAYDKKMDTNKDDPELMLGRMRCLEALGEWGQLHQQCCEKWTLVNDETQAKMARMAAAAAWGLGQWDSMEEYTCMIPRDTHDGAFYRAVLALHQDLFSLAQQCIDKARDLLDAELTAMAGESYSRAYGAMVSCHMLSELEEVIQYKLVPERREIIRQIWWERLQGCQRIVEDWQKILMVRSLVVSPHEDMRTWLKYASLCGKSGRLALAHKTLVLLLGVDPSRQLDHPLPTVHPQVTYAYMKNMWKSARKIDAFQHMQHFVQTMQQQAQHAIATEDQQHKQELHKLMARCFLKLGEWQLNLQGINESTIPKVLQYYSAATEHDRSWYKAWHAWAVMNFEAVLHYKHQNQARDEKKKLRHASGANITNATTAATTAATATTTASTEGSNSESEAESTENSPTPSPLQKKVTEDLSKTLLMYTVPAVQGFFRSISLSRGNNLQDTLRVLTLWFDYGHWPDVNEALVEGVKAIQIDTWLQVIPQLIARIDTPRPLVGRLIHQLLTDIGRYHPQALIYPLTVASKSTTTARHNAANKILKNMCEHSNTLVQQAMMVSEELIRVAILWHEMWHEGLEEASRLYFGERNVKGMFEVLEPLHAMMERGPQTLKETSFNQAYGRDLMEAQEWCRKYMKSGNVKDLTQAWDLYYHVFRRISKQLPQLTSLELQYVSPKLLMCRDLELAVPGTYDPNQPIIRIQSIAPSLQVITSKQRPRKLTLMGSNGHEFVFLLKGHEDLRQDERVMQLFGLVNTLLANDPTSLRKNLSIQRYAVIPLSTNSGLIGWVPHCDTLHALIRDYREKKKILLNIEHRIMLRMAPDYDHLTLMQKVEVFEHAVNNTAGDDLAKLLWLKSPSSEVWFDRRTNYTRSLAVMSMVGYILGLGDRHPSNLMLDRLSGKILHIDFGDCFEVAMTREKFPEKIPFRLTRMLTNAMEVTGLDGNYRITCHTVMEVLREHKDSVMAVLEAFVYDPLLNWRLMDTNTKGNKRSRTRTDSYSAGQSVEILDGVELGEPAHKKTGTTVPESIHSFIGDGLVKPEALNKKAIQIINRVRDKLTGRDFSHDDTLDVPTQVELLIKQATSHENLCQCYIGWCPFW

Row | IC50 (PC3 cells) | IC50 (mTOR kinase) | IC50 (pS6RP (S235/236)) | IC50 (PI3Kα (wild-type)) | IC50 (pAkt(S473)) | IC50 (pAkt(T308)) | Compound
1 | 501 to 5000 nM | 50 to 200 nM | 501 to 5000 nM | < 50 nM |  |  | CS(=O)(=O)c1cccc(-c2cc3nc(-c4cnc(N)nc4)nc(N4CCOCC4)c3cc2F)c1 [Example 2, 5-(6-Fluoro-7-(3-(methylsulfonyl)phenyl)-4-morpholinoquinazolin-2-yl)pyrimidin-2-amine]
2 | 100 to 500 nM | < 50 nM | 100 to 500 nM | < 50 nM |  |  | CS(=O)(=O)c1cccc(-c2cnc3c(N4CCOCC4)nc(-c4cnc(N)nc4)nc3c2)c1 [Example 20, 5-(7-(3-(methyl-sulfonyl)phenyl)-4-morpholinopyrido[3,2-d]-pyrimidin-2-yl)pyrimidin-2-amine]
3 | > 1000 nM | 50 to 200 nM | 501 to 5000 nM | < 50 nM | 100 to 500 nM |  | Nc1ncc(-c2nc(N3CCOCC3)c3ncc(-c4cncnc4)cc3n2)cn1 [Example 23, 5-(4-morpholino-7-(pyrimidin-5-yl)-pyrido[3,2-d]pyrimidin-2-yl)pyrimidin-2-amine]
4 | < 100 nM | < 50 nM | 100 to 500 nM | < 50 nM |  | 501 to 5000 nM | CC(O)C(=O)Nc1cccc(-c2cnc3c(N4CCOCC4)nc(-c4cnc(N)nc4)nc3c2)c1 (stereo not shown) [Example 45, N-(3-(2-(2-amino-pyrimidin-5-yl)-4-morpholinopyrido[3,2-d]pyrimidin-7-yl)phenyl)-2-hydroxypropanamide]
5 | 100 to 500 nM | < 50 nM | 501 to 5000 nM | < 50 nM |  |  | CN(C)CC(=O)Nc1cccc(-c2cnc3c(N4CCOCC4)nc(-c4cnc(N)nc4)nc3c2)c1 [Example 46, N-(3-(2-(2-amino-pyrimidin-5-yl)-4-morpholinopyrido[3,2-d]pyrimidin-7-yl)phenyl)-2-(dimethylamino)-acetamide]
6 | 100 to 500 nM | < 50 nM |  | < 50 nM |  | < 100 nM | Nc1ncc(-c2nc(N3CCOCC3)c3ncc(-c4cccc(NC(=O)c5cccnc5)c4)cc3n2)cn1 [Example 58, N-(3-(2-(2-amino-pyrimidin-5-yl)-4-morpholinopyrido[3,2-d]pyrimidin-7-yl)-phenyl)nicotinamide]
7 | 100 to 500 nM | < 50 nM |  | < 50 nM |  | 501 to 5000 nM | CC(C)CCC(=O)Nc1cccc(-c2cnc3c(N4CCOCC4)nc(-c4cnc(N)nc4)nc3c2)c1 [Example 66, N-(3-(2-(2-amino-pyrimidin-5-yl)-4-morpholinopyrido[3,2-d]pyrimidin-7-yl)phenyl)-4-methylpentanamide]
8 | 100 to 500 nM | < 50 nM |  | < 50 nM |  | 100 to 500 nM | Nc1ncc(-c2nc(N3CCOCC3)c3ncc(-c4cccc(NC(=O)c5ccco5)c4)cc3n2)cn1 [Example 67, N-(3-(2-(2-amino-pyrimidin-5-yl)-4-morpholinopyrido[3,2-d]pyrimidin-7-yl)-phenyl)furan-2-carboxamide]
9 | 100 to 500 nM | < 50 nM |  | < 50 nM |  | < 100 nM | Nc1ncc(-c2nc(N3CCOCC3)c3ncc(-c4cccc(NC(=O)c5cnccc5C(F)(F)F)c4)cc3n2)cn1 [Example 68, N-(3-(2-(2-amino-pyrimidin-5-yl)-4-morpholinopyrido[3,2-d]pyrimidin-7-yl)phenyl)-4-(trifluoromethyl)-nicotinamide]
10 | 100 to 500 nM | < 50 nM |  | < 50 nM |  | 100 to 500 nM | Nc1ncc(-c2nc(N3CCOCC3)c3ncc(-c4cccc(NC(=O)C5CCC(O)CC5)c4)cc3n2)cn1 (stereo not shown) [Example 70, N-(3-(2-(2-amino-pyrimidin-5-yl)-4-morpholinopyrido[3,2-d]pyrimidin-7-yl)phenyl)-4-hydroxycyclohexane-carboxamide]
11 | 100 to 500 nM | < 50 nM |  | < 50 nM |  | < 100 nM | Nc1ncc(-c2nc(N3CCOCC3)c3ncc(-c4cccc(NC(=O)C5CCC5)c4)cc3n2)cn1 [Example 76, N-(3-(2-(2-amino-pyrimidin-5-yl)-4-morpholinopyrido[3,2-d]pyrimidin-7-yl)-phenyl)cyclobutane-carboxamide]
12 | 100 to 500 nM | < 50 nM |  | < 50 nM |  | < 100 nM | Nc1ncc(-c2nc(N3CCOCC3)c3ncc(-c4cccc(NS(=O)(=O)C5CC5)c4)cc3n2)cn1 [Example 81, N-(3-(2-(2-amino-pyrimidin-5-yl)-4-morpholinopyrido[3,2-d]pyrimidin-7-yl)-phenyl)cyclopropane-sulfonamide]
13 | 100 to 500 nM | < 50 nM |  | < 50 nM |  | < 100 nM | Nc1ncc(-c2nc(N3CCOCC3)c3ncc(-c4ccc(NS(=O)(=O)C5CC5)cc4)cc3n2)cn1 [Example 82, N-(4-(2-(2-amino-pyrimidin-5-yl)-4-morpholinopyrido[3,2-d]-pyrimidin-7-yl)phenyl)-cyclopropanesulfonamide]
14 | 100 to 500 nM | < 50 nM |  | < 50 nM |  | 100 to 500 nM | Nc1ncc(-c2nc(N3CCOCC3)c3ncc(-c4cccc(NC(=O)CN5CCOCC5)c4)cc3n2)cn1 [Example 84, N-(3-(2-(2-aminopyrimidin-5-yl)-4-morpholinopyrido[3,2-d]pyrimidin-7-yl)phenyl)-2-morpholinoacetamide]
15 | 100 to 500 nM | < 50 nM |  | < 50 nM |  | 100 to 500 nM | CN1CCN(CC(=O)Nc2ccc(F)c(-c3cnc4c(N5CCOCC5)nc(-c5cnc(N)nc5)nc4c3)c2)CC1 [Example 85, N-(3-(2-(2-aminopyrimidin-5-yl)-4-morpholinopyrido[3,2-d]pyrimidin-7-yl)-4-fluorophenyl)-2-(4-methylpiperazin-1-yl)-acetamide]
16 | 100 to 500 nM | 50 to 200 nM | 100 to 500 nM | < 50 nM | < 100 nM |  | Nc1ncc(-c2nc(N3CCOCC3)c3ncc(-c4cc(NC(=O)C5CC5)ccc4F)cc3n2)cn1 [Example 95, N-(3-(2-(2-amino-pyrimidin-5-yl)-4-morpholinopyrido[3,2-d]-pyrimidin-7-yl)-4-fluorophenyl)cyclopropane-carboxamide]
17 | < 100 nM | 50 to 200 nM |  | < 50 nM |  | < 100 nM | CNC(=O)c1cccc(-c2cnc3c(N4CCOCC4)nc(-c4cnc(N)nc4)nc3c2)c1 [Example 103, 3-(2-(2-aminopyrimidin-5-yl)-4-morpholinopyrido[3,2-d]-pyrimidin-7-yl)-N-methylbenzamide]
18 | 100 to 500 nM | < 50 nM |  | < 50 nM |  | < 100 nM | CCC(=O)Nc1cccc(-c2cnc3c(N4CCOCC4)nc(-c4cnc(N)nc4)nc3c2)c1 [Example 104, N-(3-(2-(2-amino-pyrimidin-5-yl)-4-morpholinopyrido[3,2-d]-pyrimidin-7-yl)-phenyl)propionamide]
19 | 100 to 500 nM | < 50 nM |  | < 50 nM |  | 501 to 5000 nM | CC(C)C(=O)Nc1cccc(-c2cnc3c(N4CCOCC4)nc(-c4cnc(N)nc4)nc3c2)c1 [Example 105, N-(3-(2-(2-amino-pyrimidin-5-yl)-4-morpholinopyrido[3,2-d]-pyrimidin-7-yl)-phenyl)isobutyramide]
20 | 100 to 500 nM | 50 to 200 nM |  | < 50 nM |  | 501 to 5000 nM | CC(C)(O)c1cccc(-c2cnc3c(N4CCOCC4)nc(-c4cnc(N)nc4)nc3c2)c1 [Example 109, 2-(3-(2-(2-amino-pyrimidin-5-yl)-4-morpholinopyrido[3,2-d]pyrimidin-7-yl)-phenyl)propan-2-ol]
21 | 501 to 5000 nM | < 50 nM | 501 to 5000 nM | < 50 nM | 501 to 5000 nM |  | CC(C)(C)C(=O)Nc1cccc(-c2cnc3c(N4CCOCC4)nc(-c4cnc(N)nc4)nc3c2)c1 [Example 118, N-(3-(2-(2-amino-pyrimidin-5-yl)-4-morpholinopyrido[3,2-d]pyrimidin-7-yl)-phenyl)pivalamide]
